Laboratory results: US11590139B2, “Substituted aminopurine compounds, compositions thereof, and methods of treatment therewith” (Signal Pharmaceuticals, LLC, priority 2014, dated 2023)
One block for each molecule: values may come before it.

System: Lox-IMVI melanoma cell line
Test: Lox-IMVI anti-proliferative assay (growth inhibition, Cell Titer-Glo)
Type: cell-based, human
Conditions: Homo sapiens; IC50 activity level in the cell-based Lox-IMVI anti-proliferative assay; read-out: Activity
In short: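 Cells grown in RPMI + 10% FBS were exposed to compound at 0.5 nM to 10 μM (10-point, 3-fold dilution, duplicate, 0.2% DMSO final) for 72 h at 37 °C, 5% CO2. Viability was read by ATP luminescence at t0 and 72 h. IC50 came from a four-parameter logistic fit normalized to DMSO control.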

SMILES: NC(=O)[C@H]1CC[C@@H](n2c(Nc3c(F)cc(F)cc3Cl)nc3cnc(N[C@@H]4CCC[C@H]4O)nc32)CC1 [Example 252, (1S,4s)-4-(8-(2-chloro-4,6-difluorophenylamino)-2-((1R,2R)-2-hydroxycyclopentylamino)-9H-purin-9-yl)cyclohexanecarboxamide]
IC50: > 1000 nM

SMILES: NC(=O)[C@H]1CC[C@@H](n2c(Nc3c(Cl)cccc3Cl)nc3cnc(N[C@@H]4CCC[C@H]4O)nc32)CC1 [Example 253, (1S,4s)-4-(8-(2,6-dichlorophenylamino)-2-((1R,2R)-2-hydroxycyclopentylamino)-9H-purin-9-yl)cyclohexanecarboxamide]
IC50: > 1000 nM

SMILES: NC(=O)[C@H]1CC[C@@H](n2c(Nc3c(F)cc(Cl)cc3Cl)nc3cnc(N[C@@H]4CCC[C@H]4O)nc32)CC1 [Example 255, (1S,4s)-4-(8-(2,4-dichloro-6-fluorophenylamino)-2-((1R,2R)-2-hydroxycyclopentylamino)-9H-purin-9-yl)cyclohexanecarboxamide]
IC50: > 1000 nM

SMILES: NC(=O)[C@H]1CC[C@@H](n2c(Nc3c(Cl)cc(F)cc3Cl)nc3cnc(N[C@@H]4CCC[C@H]4O)nc32)CC1 [Example 256, (1S,4s)-4-(8-(2,6-dichloro-4-fluorophenylamino)-2-((1R,2R)-2-hydroxycyclopentylamino)-9H-purin-9-yl)cyclohexanecarboxamide]
IC50: > 1000 nM

SMILES: NC(=O)[C@H]1CC[C@@H](n2c(Nc3ccc(Cl)c(F)c3F)nc3cnc(N[C@@H]4CCC[C@H]4O)nc32)CC1 [Example 258, (1S,4s)-4-(8-(4-chloro-2,3-difluorophenylamino)-2-((1R,2R)-2-hydroxycyclopentylamino)-9H-purin-9-yl)cyclohexanecarboxamide]
IC50: > 1000 nM

SMILES: NC(=O)[C@H]1CC[C@@H](n2c(Nc3c(F)ccc(Cl)c3F)nc3cnc(N[C@@H]4CCC[C@H]4O)nc32)CC1 [Example 259, (1S,4s)-4-(8-(3-chloro-2,6-difluorophenylamino)-2-((1R,2R)-2-hydroxycyclopentylamino)-9H-purin-9-yl)cyclohexanecarboxamide]
IC50: > 1000 nM

SMILES: NC(=O)[C@H]1CC[C@@H](n2c(Nc3c(F)ccc(F)c3F)nc3cnc(N[C@@H]4CCC[C@H]4O)nc32)CC1 [Example 260, (1S,4s)-4-(2-((1R,2R)-2-hydroxycyclopentylamino)-8-(2,3,6-trifluorophenylamino)-9H-purin-9-yl)cyclohexanecarboxamide]
IC50: > 1000 nM

SMILES: NC(=O)[C@H]1CC[C@@H](n2c(Nc3ccc(Cl)cc3Cl)nc3cnc(N[C@@H]4CCC[C@H]4O)nc32)CC1 [Example 261, (1S,4s)-4-(8-(2,4-dichlorophenylamino)-2-((1R,2R)-2-hydroxycyclopentylamino)-9H-purin-9-yl)cyclohexanecarboxamide]
IC50: > 1000 nM

Results, then the molecule that gave them:

IC50: > 1000 nM
SMILES: NC(=O)[C@H]1CC[C@@H](n2c(Nc3c(F)cccc3Cl)nc3cnc(N[C@@H]4CCC[C@H]4O)nc32)CC1 [Example 250, (1S,4s)-4-(8-(2-chloro-6-fluorophenylamino)-2-((1R,2R)-2-hydroxycyclopentylamino)-9H-purin-9-yl)cyclohexanecarboxamide]

IC50: > 1000 nM
SMILES: NC(=O)[C@H]1CC[C@@H](n2c(Nc3c(F)cccc3F)nc3cnc(N[C@@H]4CCC[C@H]4O)nc32)CC1 [Example 251, (1S,4s)-4-(8-(2,6-difluorophenylamino)-2-((1R,2R)-2-hydroxycyclopentylamino)-9H-purin-9-yl)cyclohexanecarboxamide]

IC50: 500 to 1000 nM
SMILES: NC(=O)[C@H]1CC[C@@H](n2c(Nc3c(Cl)cc(Cl)cc3Cl)nc3cnc(N[C@@H]4CCC[C@H]4O)nc32)CC1 [Example 254, (1S,4s)-4-(2-((1R,2R)-2-hydroxycyclopentylamino)-8-(2,4,6-trichlorophenylamino)-9H-purin-9-yl)cyclohexanecarboxamide]

IC50: 500 to 1000 nM
SMILES: NC(=O)[C@H]1CC[C@@H](n2c(Nc3c(F)cc(Cl)cc3F)nc3cnc(N[C@@H]4CCC[C@H]4O)nc32)CC1 [Example 257, (1S,4s)-4-(8-(4-chloro-2,6-difluorophenylamino)-2-((1R,2R)-2-hydroxycyclopentylamino)-9H-purin-9-yl)cyclohexanecarboxamide]
